Assay results as given in patent US8536113B2, “EGFR binding peptides and uses thereof” (Janssen Biotech, Inc., priority 2006, dated 2013).

How the values were obtained:
[1] = target: T1, complex between EGF and sEGFR-MMB (Homo sapiens, UniProt P00533); assay: Phage ELISA binding studies on P190, receptor with added EGF; settings: Table 10; listed as pIX-190
T1 construct: made in house
Description: The plates were held overnight at room temperature, washed twice with TBST (0.5M Tris Base, 9% NaCl, 0.05% tween, pH 7.6), and loaded with 200 μL per well of Starting Block (Pierce). […] The plates were held at room temperature for 1.5 hours for blocking. Plates were then washed twice with TBST and phage were added. The phage solutions were crude phage supernatant from overnight cultures diluted four-fold with Starting Block. After a one-hour incubation, the plates were washed thrice with TBST and 100 μL of a 1:5000 dilution of phage binding antibody conjugate (α-M13-HRP) was added to the wells. EGF was added if applicable. After a one-hour incubation the plates were washed five times with TBST, 100 μL of POD (BM Chemiluminescence ELISA substrate; Roche Applied Science) was added, and chemiluminescence recorded.

MCF-7 = assay: Flow cytometry of phage binding to EGFR negative tumor cells; type: cell-based, human; settings: EGFR positive versus EGFR negative cells
Description: (§1) Flow cytometry. To evaluate whether the selected peptides from phage display can bind to tumor cells that overexpress EGFR, A431 cells (epidermoid cancer) or an EGFR negative tumor cells, MCF-7 (breast carcinoma) were tested in a flow cytometry assay using fluorescence detection (FACS). For P145, PP146 and their control phage, 2.5×10^5 A431 cells were resuspended in 25 μl of flow staining buffer (dPBS with 1% BSA, 0.09% sodium azide) and incubated with 25 μl of phage clones for 1 hour at 4° C. […] Cells were washed two times with flow staining buffer and then incubated with 0.5 μg of mouse anti M13/fd/F1 filamentous phages monoclonal antibody conjugated to FITC (Fitzgerald Industries International, Inc. Concord, Mass.) for 45 minutes at 4° C. Cells were washed two times with flow staining buffer and acquired by FACSCalibur (BD, Franklin Lakes, N.J.) to detect bound phages on tumor cell surface. Results.
(§2) A431 cells (epidermoid cancer) which overexpress EGFR and EGFR-negative tumor cells, MCF-7 (breast carcinoma) were tested in a flow cytometry assay. Tumor cells (A431 and MCF-7) were harvested with 0.25% tyrpsin-EDTA and washed twice with FACS staining buffer (dPBS with 1% BSA, 0.09% sodium azide). […] After binding at 4° C., cells were washed twice with FACS staining buffer to remove unbound phage and then incubated with 0.5 μg of mouse anti-M13 monoclonal antibody conjugated to FITC (Fitzgerald Industries International, Inc. Concord, Mass.) for 1 hour at 4° C. Mouse anti-M13-FITC incubated with cells without phage was used as background binding. Cells were washed twice with FACS staining buffer to remove unbound detection antibody.

A431 cells [2] = assay: Internalization of biotinylated P190 by FACS and confocal microscopy; type: cell-based, human; settings: 37° C.
Description: The complexes were added to A431 cells that had been pre-incubated in PBS with or without EGF for 15 minutes and then incubated for an additional hour. Cells were washed to remove unbound complexes and split into two separate tubes, one of which stayed at 4° C. and one of which was incubated for 2 hours at 37° C. to promote internalization. Again, cells were washed and further split into 2 groups with one tube from each temperature undergoing acid wash treatment to remove surface-bound biotinylated peptide. Cells were washed again in FACS staining buffer and peptide binding and internalization were acquired by FACSCalibur (BD, Franklin Lakes, N.J.) and analyzed by Cell Quest software. The remaining cells from both 4° C. and 37° C. without acid wash after FACS analysis were centrifuged and resuspended with 50 μL mounting medium containing DAPI (Vector Laboratory Inc. Burlingame, Calif.). Ten μL of cells in mounting medium were transferred to a glass slide, covered with thin glass slips and examined by confocal microscopy.

A431 cells [3] = assay: Flow cytometry of phage binding to tumor cells; type: cell-based, human
Description: as §1, §2

For DPCTWEVWGRECLQ [P190], the “Binds EGF + SEGFR-MMB Complex” value [1] was “increased in the presence of EGF or TGF-a”, the “binding to A431 compared with MCF-7” value (MCF-7) was “bound more effectively to A431 cells” and the “binding to A431 compared with MCF-7” value (MCF-7; listed as pIII-190) was “bind to A431 but not to MCF-7”. For the same sequence, the “binding to A431 compared with MCF-7” value (MCF-7; listed as pIX-190) was “bind to A431 but not to MCF-7”, the “internalization into EGFR^+ cells” value (A431 cells [2]) was “is internalized” and the “phage binding to A431 cells in the presence of EGF” value (A431 cells [3]) was “increased”. For the same sequence, the “phage binding to A431 cells in the presence of EGF and cetuximab” value (A431 cells [3]) was “decreases”.
